According to the supplement of paper PMC10307832:

Key:
Test in all cases: relative viability (nuclei count vs DMSO), 5 days (fraction); higher = more cells survive
TGX 221 + OSI-027 = compound: CC1=CN2C(=O)C=C(N=C2C(=C1)C(C)NC3=CC=CC=C3)N4CCOCC4 [TGX 221] + COc1cccc2cc(-c3nc([C@H]4CC[C@H](C(=O)O)CC4)n4ncnc(N)c34)[nH]c12 [OSI-027] (partner 0.5 µM)
In short: (§1)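 Values are medians from duplicate plates. Each reflects relative viability, defined as the nuclei count of treated wells over that of vehicle wells. Lung cancer cell lines in 1536-well plates were pin-tool dosed one day after seeding with one drug alone or with a fixed anchor-drug dose plus five library-drug doses (not always all listed) in √10 steps, then fixed, stained and imaged at 4× after 5 days.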

[1] = compound: C1=CC=C(C(=C1)C2=CC=C(C=C2)C3=CSC4=C3C(=C(C(=O)N4)C#N)O)O + Cc1cc(Nc2cc(N3CCN(C)CC3)nc(Sc3ccc(NC(=O)C4CC4)cc3)n2)n[nH]1 [Tozasertib] (partner 0.1 µM)
In short: as §1

[2] = compound: O=C(CCCCCCNC(=O)c1cnc(N(c2ccccc2)c2ccccc2)nc1)NO [Ricolinostat] + Nc1ncn([C@H]2C[C@H](O)[C@@H](CO)O2)c(=O)n1 [Decitabine] (partner 2 µM)
In short: as §1

[3] = compound: O=C(CCCCCCNC(=O)c1cnc(N(c2ccccc2)c2ccccc2)nc1)NO [Ricolinostat] + C[C@]1(O)C[C@@H](c2nc(-c3ccc4ccc(-c5ccccc5)nc4c3)c3c(N)nccn32)C1 [Linsitinib] (partner 1 µM)
In short: as §1

Cell Line | relative viability (TGX 221 + OSI-027; first compound 0.08 µM) | relative viability (TGX 221 + OSI-027; first compound 0.253 µM) | relative viability (TGX 221 + OSI-027; first compound 0.8 µM) | relative viability (TGX 221 + OSI-027; first compound 2.53 µM) | relative viability (TGX 221 + OSI-027; first compound 8 µM) | relative viability ([1]; first compound 0.08 µM) | relative viability ([1]; first compound 0.253 µM) | relative viability ([1]; first compound 0.8 µM) | relative viability ([1]; first compound 2.53 µM) | relative viability ([1]; first compound 8 µM) | relative viability ([2]; first compound 0.08 µM) | relative viability ([2]; first compound 0.253 µM) | relative viability ([2]; first compound 0.8 µM) | relative viability ([2]; first compound 2.53 µM) | relative viability ([3]; first compound 0.08 µM) | relative viability ([3]; first compound 0.253 µM) | relative viability ([3]; first compound 0.8 µM) | relative viability ([3]; first compound 2.53 µM)
NCI-H460 | 0.666 | 0.566 | 0.713 | 0.56 | 0.504 | 0.395 | 0.429 | 0.345 | 0.461 | 0.296 | 0.496 | 0.429 | 0.519 | 0.427 | 0.468 | 0.774 | 0.731 | 0.58
HOP-62 | 0.787 | 0.812 | 0.788 | 0.807 | 0.835 | 0.363 | 0.363 | 0.337 | 0.335 | 0.335 | 0.217 | 0.186 | 0.144 | 0.221 | 1.03 | 0.991 | 0.943 | 0.644
NCI-H1975 | 0.694 | 0.676 | 0.653 | 0.528 | 0.555 | 0.54 | 0.742 | 0.826 | 1.02 | 0.651 | 0.371 | 0.394 | 0.382 | 0.379 | 0.998 | 0.878 | – | 0.835
NCI-H838 | 0.399 | 0.326 | 0.326 | 0.365 | 0.355 | 0.264 | 0.271 | 0.285 | 0.309 | 0.268 | 0.44 | 0.471 | 0.489 | 0.539 | 0.944 | 1.01 | 1.1 | 0.9
NCI-H2085 | 0.714 | 0.645 | 0.659 | 0.323 | 0.462 | 0.8 | 0.801 | 0.874 | 0.749 | 0.74 | – | 0.51 | 0.557 | 0.512 | – | 0.868 | 0.922 | 0.865
NCI-H3122 | 0.874 | 0.929 | 1 | 0.864 | 0.963 | 0.355 | 0.451 | 0.451 | 0.507 | 0.419 | 0.388 | 0.404 | 0.443 | 0.529 | 1.01 | 1.02 | 1.13 | 1.05
HCC-15 | 0.672 | 0.713 | 0.754 | 0.592 | 0.681 | 0.474 | 0.579 | 0.371 | 0.554 | 0.371 | 0.593 | 0.687 | 0.631 | 0.464 | 0.847 | 0.866 | 0.938 | 0.834
LU99A | 0.275 | 0.313 | 0.328 | 0.346 | 0.293 | 0.274 | 0.256 | 0.275 | 0.298 | 0.279 | 0.883 | 0.899 | 0.722 | 0.748 | 0.495 | 0.473 | 0.455 | 0.419
UMC-11 | 0.502 | 0.438 | 0.482 | 0.458 | 0.456 | 0.203 | 0.227 | 0.218 | 0.321 | 0.219 | 0.551 | 0.543 | 0.561 | 0.417 | 1.02 | 0.932 | 1 | 0.723
